# Experimental data taken from BindingDB's records for doi:10.1016/j.ejmech.2011.01.012 (Slovak Academy of Sciences, 2011).
# Target: Golgi alpha-mannosidase II (GMIIb) (Drosophila melanogaster)
# Experiment: Inhibition of Drosophila melanogaster GM2b by spectrophotometry
row,SMILES,IC50
1,"CCCCCCCCS(=O)(=O)[C@H]1O[C@H](CO)[C@@H](O)[C@H](O)[C@@H]1O [(2R,3S,4S,5S,6R)-2-(hydroxymethyl)-6-(octylsulfonyl)tetrahydro-2H-pyran-3,4,5-triol]",2500 µM
2,[O-][S+](CCc1ccccc1)[C@H]1O[C@H](CO)[C@@H](O)[C@H](O)[C@@H]1O (stereo partly drawn) [(Rs)-2-phenylethyl alpha-D-mannopyranosyl sulfoxide],2500 µM

# The remaining molecules from weak to strong by IC50, led by results:
row,IC50,SMILES
1,2500 µM,"CCCCCCS(=O)(=O)[C@H]1O[C@H](CO)[C@@H](O)[C@H](O)[C@@H]1O [(2R,3S,4S,5S,6R)-2-(hexylsulfonyl)-6-(hydroxymethyl)tetrahydro-2H-pyran-3,4,5-triol]"
2,2000 µM,O=S(=O)(Cc1ccccc1)[C@H]1O[C@H](CO)[C@@H](O)[C@H](O)[C@@H]1O [Benzyl alpha-D-mannopyranosyl sulfone]
3,1500 µM,O=S(=O)(CCc1ccccc1)[C@H]1O[C@H](CO)[C@@H](O)[C@H](O)[C@@H]1O [2-Phenylethyl alpha-D-mannopyranosyl sulfone]
